Consider 21 compounds from paper PMC12480751, “A quantitative high-throughput screening pipeline to identify small molecule inhibitors of Chikungunya nsP2 protease” (Scientific Reports, 2025).

“Also recorded” adds a separate entry of the source. Like-named read-outs stand apart in the source and are kept apart here.

By Km is commonly meant the concentration of substrate that gives half-maximal velocity. In general, IC50 refers to the midpoint of a concentration-inhibition curve. One may read the AC50 as the midpoint of the concentration-response curve, whichever way the signal moves. A word on the CC50: it is the concentration giving 50% cytotoxicity.

One series addresses nsP2pro (Chikungunya virus, UniProt Q8JUX6). The following applies: for nsP2pro Vmax: 150 nM nsP2pro (peptide 2) or 2 μM nsP2pro (peptide 3); for Km: read-out: nsP2pro Km; for Km / nsP2pro kcat: substrate peptide.
For another series, the target named is FL nsP2 (Chikungunya virus, UniProt Q8JUX6, C1333A). The note with it: for full-length nsP2 Vmax: 150 nM nsP2 (peptide 2) or 2 μM nsP2 (peptide 3); for Km: read-out: FL nsP2 Km; for Km / FL nsP2 kcat: substrate peptide.
Another series has as its target CHIKV nsP2pro (Chikungunya virus, UniProt Q8JUX6). As to the kind of experiment: FRET-based nsP2pro proteolytic assay with peptide 2 (nsp3/4 site), 1,536-well qHTS. The following applies: for selectivity for nsP2pro versus Papain, hFurin and HCV NS3-4A: based on biochemical counterscreens; for Emax: read-out: Enzymatic % Efficacy; for inhibitory activity against CHIKV nsP2: biochemical assays. It counts as biochemical. (In general: In qHTS, concentration-response curves come from the screen itself.)

In a further series the target is T1, nsP2 protease (Chikungunya virus, UniProt Q8JUX6).
T1 construct: expressed in transfected cells; host or cells: HEK293T (the results text says HEK293), transient co-transfection in pcDNA3.1(+)
T1 sequence (Q8JUX6 755-1333 limits assumed): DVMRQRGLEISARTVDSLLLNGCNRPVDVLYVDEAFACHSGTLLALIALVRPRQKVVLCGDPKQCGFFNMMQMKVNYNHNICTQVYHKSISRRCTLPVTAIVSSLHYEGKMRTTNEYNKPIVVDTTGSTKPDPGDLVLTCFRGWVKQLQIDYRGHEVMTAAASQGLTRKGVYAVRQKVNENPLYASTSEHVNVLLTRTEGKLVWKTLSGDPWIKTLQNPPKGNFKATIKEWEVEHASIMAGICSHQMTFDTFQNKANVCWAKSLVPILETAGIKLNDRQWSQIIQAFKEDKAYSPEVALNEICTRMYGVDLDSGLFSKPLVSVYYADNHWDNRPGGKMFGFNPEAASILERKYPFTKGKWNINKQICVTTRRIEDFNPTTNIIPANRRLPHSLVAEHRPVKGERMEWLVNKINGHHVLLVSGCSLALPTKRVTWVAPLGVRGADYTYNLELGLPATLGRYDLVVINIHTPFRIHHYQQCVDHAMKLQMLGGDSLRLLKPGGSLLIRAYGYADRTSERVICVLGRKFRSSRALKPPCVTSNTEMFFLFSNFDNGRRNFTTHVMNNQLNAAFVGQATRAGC
As to the kind of experiment: cell-based. It counts as cell-based. The following applies: for Emax: HEK293, read-out: Cell-based % Efficacy.

Series [1] has as its system CHIKV 181/25 vaccine strain. As to the kind of experiment: CHIKV181/25 infection assay in SNB-19 cells, high-content immunofluorescence.
Series [2] can be described thus: CellTiter-Glo cell viability assay of SNB19 cells. In kind it is cell-based, human. The following applies: human, SNB19 cells. As to the method:
Cells were harvested in growth media and dispensed (5 µL /1,000 cells/well) onto 1536-well white plates (Aurora #EWB041000A) using a Multidrop Combi. Control and test compounds were added (25 nL) using an Echo 650 liquid handler. Plates were incubated for 48 h at 37 °C and 5% CO2 and then equilibrated to room temperature prior to addition of 4 µL /well of CellTiter-Glo (Promega) using a Multidrop Combi. Plates were subsequently incubated for 15 min at room temperature and centrifuged for 1 min at 1000 rpm. Luminescence was read on a ViewLux imager equipped with clear filters.
On the technique in general: In ATP-based viability assays light output follows the ATP content of the culture.

In the next series the target is human Furin (Homo sapiens, UniProt P09958). Kind of series: human Furin FRET selectivity counterscreen. In kind it is biochemical. In general terms: A counterscreen serves to expose hits that act by an unwanted route or on another target.
Another series concerns the target Papain (Carica papaya, UniProt P00784).
The mark [3] stands for this setting: nsP2pro biochemical assay, 13 cell-active hits.
[4] abbreviates: nsP2pro biochemical assay, 13 cell-active hits, read-out: Enzymatic IC50.

Chain of Papain (P00784 134-345): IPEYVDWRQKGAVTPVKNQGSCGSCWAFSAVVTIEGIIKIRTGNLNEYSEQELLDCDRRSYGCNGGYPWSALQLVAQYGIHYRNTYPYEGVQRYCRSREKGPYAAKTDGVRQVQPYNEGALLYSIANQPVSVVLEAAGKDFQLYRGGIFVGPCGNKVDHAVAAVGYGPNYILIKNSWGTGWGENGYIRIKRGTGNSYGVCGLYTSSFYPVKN
Chain of human Furin (P09958 108-794): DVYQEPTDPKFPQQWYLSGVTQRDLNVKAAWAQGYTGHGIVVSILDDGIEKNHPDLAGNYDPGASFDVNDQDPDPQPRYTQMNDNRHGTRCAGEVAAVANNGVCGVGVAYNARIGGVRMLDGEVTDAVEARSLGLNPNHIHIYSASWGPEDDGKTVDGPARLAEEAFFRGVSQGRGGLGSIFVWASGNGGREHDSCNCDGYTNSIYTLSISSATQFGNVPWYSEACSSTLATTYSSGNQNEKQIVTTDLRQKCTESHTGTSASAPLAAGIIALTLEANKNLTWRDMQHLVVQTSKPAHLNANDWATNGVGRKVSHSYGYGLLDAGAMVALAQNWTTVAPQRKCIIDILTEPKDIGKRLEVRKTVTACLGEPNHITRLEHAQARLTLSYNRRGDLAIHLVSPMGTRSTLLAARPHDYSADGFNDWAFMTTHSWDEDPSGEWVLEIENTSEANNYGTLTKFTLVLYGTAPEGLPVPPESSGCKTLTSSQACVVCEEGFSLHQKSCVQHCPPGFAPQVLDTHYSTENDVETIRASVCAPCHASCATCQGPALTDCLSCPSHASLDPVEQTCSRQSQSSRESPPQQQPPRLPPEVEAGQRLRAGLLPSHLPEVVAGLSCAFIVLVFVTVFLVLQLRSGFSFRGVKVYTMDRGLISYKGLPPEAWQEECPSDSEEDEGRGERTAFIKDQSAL

On to “5-TAMRA-DELRLDRAGGYIFSS-K-QSY7 [Peptide 2]”, for which, at nsP2pro, the “nsP2pro Vmax” value was 0.26 µM/min, the Km was 6.3 µM and the nsP2pro kcat is listed as 214.2 ± 13.1 x 10^-4 sec^-1. Also, on FL nsP2, the “full-length nsP2 Vmax” value worked out at 0.2 µM/min, the Km amounted to 1.1 µM and the “FL nsP2 kcat” value is 167.2 ± 10.4 s⁻¹.

As for `Nc1nc2c(s1)CCN(Cc1ccc(Cl)cc1)CC2` [B-HT 958], on CHIKV nsP2pro, half-maximal inhibition (IC50) was put at 7.9 µM; the “selectivity for nsP2pro versus Papain, hFurin and HCV NS3-4A” value (“selectivity for nsP2pro versus Papain” for short) is reported as “specific to nsP2pro”; the Emax was -62.1%. For the same compound, at nsP2 protease, the AC50 came to 0.23 µM and the Emax worked out at 114%.

For `O=C(O[C@@H]1Cc2c(O)cc(O)cc2O[C@@H]1c1cc(O)c(O)c(O)c1)c1cc(O)c(O)c(O)c1` [EGCG, Epigallocatechin gallate], the “inhibitory activity against CHIKV nsP2” value on CHIKV nsP2pro is given as “inhibited nsp2pro activity in vitro”. Further, at nsP2 protease, the “effect on Nluc reporter signal in cellular nsp2 proteolytic assay” value was “did not have an effect”. In series [1] (SNB-19 cells), the “effect on CHIKV infection” value was “strongly prevented CHIKV infection”.

Take `Nc1ccn([C@@H]2O[C@H](CO)[C@@H](O)C2(F)F)c(=O)n1` [Gemcitabine]: in series [1] (SNB-19 cells, infection inhibition control), the “concentrations showing consistent CHIKV inhibition” value was “under 1 µM”.

For `C[C@H](N)[C@H](O)c1ccc(O)c(O)c1` [Levonordefrin], on CHIKV nsP2pro, the IC50 worked out at 7.7 µM; the “selectivity for nsP2pro versus Papain” value is “not selective”; the Emax is -74.9%. In addition, at nsP2 protease, half-maximal activity (AC50) was put at 0.4 µM and the Emax came out at 71.5%. Besides, the “activity against HCV NS3-4A” value in the series with HCV NS3-4A is “also inhibited”.

Turning to `CCOc1ccc(NC(=O)c2c(NC(=O)Cc3ccccc3)sc3c2CCCCC3)cc1` [NCGC00098557], the “Enzymatic % Efficacy” value on CHIKV nsP2pro (setting [3]) was -80.1%. Also, at CHIKV nsP2pro (setting [4]), the IC50 is 7.9 µM. Further, at nsP2 protease, the “Cell-based % Efficacy” value is given as 101.3%. Also, the AC50 at nsP2 protease (read-out: Cell-based AC50) was 12.9 µM.

Regarding `CCCS(=O)(=O)c1ncc(Cl)c(C(=O)N(Cc2ccccc2)Cc2ccco2)n1` [NCGC00115102], at CHIKV nsP2pro, the “selectivity for nsP2pro versus Papain” value is “specific to nsP2pro”.

Regarding `O=c1oc2c3c(ccc2c2ccccc12)OCN(Cc1ccc(Cl)cc1)C3` [NCGC00116366], on CHIKV nsP2pro, the IC50 stood at 4.5 µM and the Emax is -114%. For the same compound, at nsP2 protease, the activity was half-maximal at 36.5 µM (AC50) and the Emax was 309%.

For the compound `O=c1oc2c3c(ccc2c2ccccc12)OCN(Cc1ccccc1Cl)C3` [NCGC00116374], on CHIKV nsP2pro, the IC50 was found to be 4 µM; the “selectivity for nsP2pro versus Papain” value is “specific to nsP2pro”; the Emax is -103%. On nsP2 protease, the AC50 stood at 14.5 µM and the Emax was determined as 112%.

In the case of `Cc1cccc(C(=O)Nc2ccc(N3CCN(c4ccc(F)cc4)CC3)c(C(=O)O)c2)c1` [NCGC00137618], the “Enzymatic % Efficacy” value at CHIKV nsP2pro (setting [3]) is on record as -83%. Further, the IC50 on CHIKV nsP2pro (setting [4]) came to 10 µM. Besides, the “Cell-based % Efficacy” value at nsP2 protease worked out at 55.5%. In addition, on nsP2 protease (read-out: Cell-based AC50), the half-maximal activity concentration (AC50) was found to be 32.6 µM.

`Cc1ccc(OCCn2c(CCNC(=O)c3ccccc3N)nc3ccccc32)cc1` [NCGC00241881]: the “selectivity for nsP2pro versus Papain” value on CHIKV nsP2pro is “not selective”. In addition, the “Enzymatic % Efficacy” value on CHIKV nsP2pro (setting [3]) is -106.1%. Also, the IC50 at CHIKV nsP2pro (setting [4]) was 1.1 µM. For the same compound, on nsP2 protease, the “Cell-based % Efficacy” value is 179%. In addition, the AC50 at nsP2 protease (read-out: Cell-based AC50) was over 50 µM.

As for `Cc1cccc(-c2noc([C@@H]3Cc4nc[nH]c4CN3C(=O)NC3CCCCC3)n2)c1` [NCGC00400417], the “selectivity for nsP2pro versus Papain” value on CHIKV nsP2pro is listed as “not selective”. Moreover, at CHIKV nsP2pro (setting [3]), the “Enzymatic % Efficacy” value was -107.3%. Also, on CHIKV nsP2pro (setting [4]), the IC50 is 2.1 µM. The “Cell-based % Efficacy” value on nsP2 protease was 75.7%. For the same compound, on nsP2 protease (read-out: Cell-based AC50), the AC50 is 47.2 µM.

Turning to `COc1cccc(C(=O)CCN[C@@H](C)[C@H](O)c2ccccc2)c1` [Oxyfedrine], on CHIKV nsP2pro, the IC50 worked out at 1.3 µM; the “selectivity for nsP2pro versus Papain” value was “selective hits; also recorded: specific to nsP2pro”; the Emax was -88.6%. In addition, on nsP2 protease, the AC50 stood at 2.6 µM and the Emax was found to be 60.3%.

As to `C#CC(=O)N(c1ccc(OC)cc1OC)C(C(=O)NCC(=O)OCC)c1cccs1` (stereo not shown) [PACMA 31], on CHIKV nsP2pro, the “selectivity for nsP2pro versus Papain” value was “selective hits”.

For `C/C(=N\NC(=N)N)c1cc(NC(=O)CCCCCCCCC(=O)Nc2cc(/C(C)=N/NC(=N)N)cc(/C(C)=N/NC(=N)N)c2)cc(/C(C)=N/NC(=N)N)c1` [Semapimod], the CC50 at 48 h in series [2] stood at 20.6 µM. Further, on CHIKV nsP2pro, the concentration for half-maximal inhibition (IC50) came out at 6.3 µM; the “selectivity for nsP2pro versus Papain” value was “not selective”; the Emax is -106%. In addition, at nsP2 protease, the AC50 is 2.2 µM and the Emax was found to be 137%. In addition, the “activity against HCV NS3-4A” value in the series with HCV NS3-4A is “also inhibited”. Also, the “activity against Furin” value on human Furin is listed as “weak activity”. The IC50 in series [1] (Chikungunya virus, SNB-19, 44 h, read-out: IC50, prevention of CHIKV infection) came out at 1.6 µM. For the same compound, in series [1] (IC50 infection vs CC50 SNB19), the “potency on CHIKV infection relative to effect on cell viability” value is recorded as “> tenfold”.

For `CCC[C@H](NC(=O)[C@@H]1[C@H]2CCC[C@H]2CN1C(=O)[C@@H](NC(=O)[C@@H](NC(=O)c1cnccn1)C1CCCCC1)C(C)(C)C)C(=O)C(=O)NC1CC1` [Telaprevir], in series [2], it took 11.6 µM to reach half-maximal cytotoxicity (CC50 at 48 h). For the same compound, on CHIKV nsP2pro, the IC50 was 3.5 µM; the “selectivity for nsP2pro versus Papain” value is “not selective”; the Emax is -123%. Besides, at nsP2 protease, the AC50 was determined as 31.6 µM and the Emax was 213%. The “activity against HCV NS3-4A” value in the series with HCV NS3-4A is “potently inhibiting; also recorded: also inhibited”. In addition, on Papain, the “activity against Papain” value is recorded as “potently inhibiting”.

Regarding `COC(=O)CC[C@H](NC(=O)[C@H](CC(=O)OC)NC(=O)OCc1ccccc1)C(=O)N[C@H](C(=O)N[C@@H](CC(=O)OC)C(=O)CF)C(C)C` [Z-DEVD-FMK], the “inhibitory activity against CHIKV nsP2” value against CHIKV nsP2pro is “did not identify”.

As to `CC(NC(=O)[C@H](Cc1ccccc1)NC(=O)OCc1ccccc1)C(=O)CF` (stereo partly shown) [Z-FA-FMK], on CHIKV nsP2pro, the “inhibitory activity against CHIKV nsP2” value was “minimal inhibitory activity”. Further, the “activity against Papain” value on Papain is recorded as “potently inhibiting”.

For `CC(C)N(CCC(=O)c1ccc2ccccc2c1)Cc1ccccc1` [ZM39923], at CHIKV nsP2pro, the “selectivity for nsP2pro versus Papain” value is on record as “selective hits”.

Consider `CCCCN(CCCC)C(=S)[S-].CCCCN(CCCC)C(=S)[S-].[Zn+2]` [Zinc dibutyldithiocarbamate], for which, on CHIKV nsP2pro, the “inhibitory activity against CHIKV nsP2” value was “potent inhibitor”. Also, the “activity against HCV NS3-4A” value in the series with HCV NS3-4A is given as “either weak or had no effect”. Moreover, the “activity against Papain” value on Papain is given as “potent inhibitor”. In addition, the “activity against Furin” value at human Furin is given as “either weak or had no effect”. Further, in series [1] (SNB-19 cells), the “effect on CHIKV infection” value is on record as “difficult to distinguish from cell toxicity”.

On to TMR-DELRLDRAGC/APSYR-K-QSY7 [Peptide 3], for which, on nsP2pro, the “nsP2pro Vmax” value is 1.03 µM/min, the Km worked out at 81.9 µM and the nsP2pro kcat is listed as 85.5 ± 4.1 x 10^-4 sec^-1. Also, on FL nsP2, the “full-length nsP2 Vmax” value was found to be 0.38 µM/min, the Km was 37.5 µM and the “FL nsP2 kcat” value was determined as 32.1 ± 2.1 s⁻¹.
